# Assays:
# [1] = tested on: morningglory (Ipomoea coccinea); test: Test C preemergence; assay type: in vivo; details: Ipomoea, pre-emergence, 336 h, preemergence, scale 0 to 100, read-out: Plant response rating, Morningglory
# Outline: (§1)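 Greenhouse test, preemergence on seeded soil or postemergence on 1- to 4-leaf plants. Response is a visual 0-100 rating versus controls, taken 13-15 days after treatment.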
# [2] = tested on: winter wheat (Triticum aestivum); test: Test C preemergence; assay type: in vivo; details: Triticum aestivum, pre-emergence, 336 h, preemergence, scale 0 to 100, read-out: Plant response rating, Wheat
# Outline: as §1
# soybean (Glycine max) = test: Test C preemergence; assay type: in vivo; details: Glycine max, pre-emergence, preemergence, scale 0 to 100, read-out: Plant response rating, Soybean
# Outline: as §1
# [3] = tested on: velvetleaf (Abutilon theophrasti); test: Test C preemergence; assay type: in vivo; details: Abutilon theophrasti, pre-emergence, preemergence, scale 0 to 100, read-out: Plant response rating, Velvetleaf
# Outline: as §1
# [4] = tested on: waterhemp (common waterhemp, Amaranthus rudis); test: Test C preemergence; assay type: in vivo; details: Amaranthus tuberculatus, pre-emergence, preemergence, scale 0 to 100, read-out: Plant response rating, Waterhemp
# Outline: as §1
# [5] = tested on: giant foxtail (Setaria faberii); test: Test C preemergence; assay type: in vivo; details: Setaria faberi, pre-emergence, 336 h, preemergence, scale 0 to 100, read-out: Plant response rating, Foxtail, Giant
# Outline: as §1
# [6] = tested on: pigweed (Amaranthus retroflexus); test: Test C preemergence; assay type: in vivo; details: Amaranthus retroflexus, pre-emergence, 336 h, preemergence, scale 0 to 100, read-out: Plant response rating, Pigweed
# Outline: as §1
# [7] = tested on: large (Lg) crabgrass (Digitaria sanguinalis); test: Test C preemergence; assay type: in vivo; details: Digitaria sanguinalis, pre-emergence, 336 h, preemergence, scale 0 to 100, read-out: Plant response rating, Crabgrass, Large
# Outline: as §1
# [8] = tested on: oilseed rape (Brassica napus); test: Test C preemergence; assay type: in vivo; details: Brassica napus, pre-emergence, preemergence, scale 0 to 100, read-out: Plant response rating, Oilseed Rape
# Outline: as §1
# [9] = tested on: johnsongrass (Sorghum halepense); test: Test C preemergence; assay type: in vivo; details: Sorghum halepense, pre-emergence, 336 h, preemergence, scale 0 to 100, read-out: Plant response rating, Johnsongrass
# Outline: as §1
# [10] = tested on: ragweed (common ragweed, Ambrosia elatior); test: Test C preemergence; assay type: in vivo; details: Ambrosia artemisiifolia, pre-emergence, 336 h, preemergence, scale 0 to 100, read-out: Plant response rating, Ragweed
# Outline: as §1
# [11] = tested on: blackgrass (Alopecurus myosuroides); test: Test C preemergence; assay type: in vivo; details: Alopecurus myosuroides, pre-emergence, 336 h, preemergence, scale 0 to 100, read-out: Plant response rating, Blackgrass
# Outline: as §1
# corn (Zea mays) = test: Test C preemergence; assay type: in vivo; details: Zea mays, pre-emergence, 336 h, preemergence, scale 0 to 100
# Outline: as §1
# [12] = tested on: barnyardgrass (Echinochloa crus-galli); test: Test C preemergence; assay type: in vivo; details: Echinochloa crus-galli, pre-emergence, preemergence, scale 0 to 100, read-out: Plant response rating, Barnyardgrass
# Outline: as §1
# [13] = tested on: Italian ryegrass (Lolium multiflorum); test: Test C preemergence; assay type: in vivo; details: Lolium multiflorum, pre-emergence, 336 h, preemergence, scale 0 to 100, read-out: Plant response rating, Ryegrass, Italian
# Outline: as §1
# [14] = tested on: yellow nutsedge (Cyperus esculentus); test: Test C postemergence; assay type: in vivo; details: Cyperus, post-emergence, 336 h, Postemergence, scale 0 to 100, read-out: Plant response rating, Nutsedge, Yellow
# Outline: as §1
# [15] = tested on: chickweed (common chickweed, Stellaria media); test: Test C postemergence; assay type: in vivo; details: Stellaria media, post-emergence, Postemergence, scale 0 to 100, read-out: Plant response rating, Chickweed
# Outline: as §1
# kochia (Kochia scoparia) = test: Test C postemergence; assay type: in vivo; details: Bassia scoparia, post-emergence, Postemergence, scale 0 to 100, read-out: Plant response rating, Kochia
# Outline: as §1
# [16] = tested on: waterhemp (common waterhemp, Amaranthus rudis); test: Test C postemergence; assay type: in vivo; details: Amaranthus tuberculatus, post-emergence, Postemergence, scale 0 to 100, read-out: Plant response rating, Waterhemp
# Outline: as §1
# wild oat (Avena fatua) = test: Test C postemergence; assay type: in vivo; details: Avena fatua, post-emergence, Postemergence, scale 0 to 100, read-out: Plant response rating, Oat, Wild
# Outline: as §1
# [17] = tested on: pigweed (Amaranthus retroflexus); test: Test C postemergence; assay type: in vivo; details: Amaranthus retroflexus, post-emergence, 336 h, Postemergence, scale 0 to 100, read-out: Plant response rating, Pigweed
# Outline: as §1
# [18] = tested on: galium (catchweed bedstraw, Galium aparine); test: Test C postemergence; assay type: in vivo; details: Galium, post-emergence, 336 h, Postemergence, scale 0 to 100, read-out: Plant response rating, Galium
# Outline: as §1
smiles,measurement,setting,value
"Fc1cccc(Oc2ncc(Cl)cn2)c1Oc1ncc(Br)cn1 [Compound 27, 5-bromo-2-[2-fluoro-6-[(5-chloro-2-pyrimidinyl)oxy]phenoxy]pyrimidine]",melting point,,145 to 148 °C
same,pest or weed control at 31 g/ha,[1]; 31 g ai/ha,5%
same,pest or weed control at 62 g/ha,[1]; 62 g ai/ha,40%
same,pest or weed control at 125 g/ha,[1]; 125 g ai/ha,98%
same,plant injury at 31 g/ha,[2]; 31 g ai/ha,0%
same,plant injury at 62 g/ha,[2]; 62 g ai/ha,5%
same,plant injury at 125 g/ha,[2]; 125 g ai/ha,40%
same,plant injury at 250 g/ha,[2]; 250 g ai/ha,85%
same,plant injury at 31 g/ha,soybean (Glycine max); 31 g ai/ha,40%
same,plant injury at 250 g/ha,soybean (Glycine max); 250 g ai/ha,90%
same,pest or weed control at 31 g/ha,[3]; 31 g ai/ha,60%
same,pest or weed control at 62 g/ha,[3]; 62 g ai/ha,95%
same,pest or weed control at 125 g/ha,[3]; 125 g ai/ha,100%
same,pest or weed control at 250 g/ha,[3]; 250 g ai/ha,100%
same,pest or weed control at 31 g/ha,[4]; 31 g ai/ha,100%
same,pest or weed control at 62 g/ha,[4]; 62 g ai/ha,100%
same,pest or weed control at 125 g/ha,[4]; 125 g ai/ha,100%
same,pest or weed control at 250 g/ha,[4]; 250 g ai/ha,100%
same,pest or weed control at 31 g/ha,[5]; 31 g ai/ha,80%
same,pest or weed control at 62 g/ha,[5]; 62 g ai/ha,100%
same,pest or weed control at 125 g/ha,[5]; 125 g ai/ha,100%
same,pest or weed control at 31 g/ha,[6]; 31 g ai/ha,100%
same,pest or weed control at 62 g/ha,[6]; 62 g ai/ha,100%
same,pest or weed control at 125 g/ha,[6]; 125 g ai/ha,100%
same,pest or weed control at 31 g/ha,[7]; 31 g ai/ha,98%
same,pest or weed control at 62 g/ha,[7]; 62 g ai/ha,98%
same,pest or weed control at 125 g/ha,[7]; 125 g ai/ha,100%
same,plant injury at 31 g/ha,[8]; 31 g ai/ha,85%
same,plant injury at 62 g/ha,[8]; 62 g ai/ha,100%
same,plant injury at 125 g/ha,[8]; 125 g ai/ha,100%
same,plant injury at 250 g/ha,[8]; 250 g ai/ha,100%
same,pest or weed control at 31 g/ha,[9]; 31 g ai/ha,25%
same,pest or weed control at 62 g/ha,[9]; 62 g ai/ha,55%
same,pest or weed control at 125 g/ha,[9]; 125 g ai/ha,75%
same,pest or weed control at 31 g/ha,[10]; 31 g ai/ha,20%
same,pest or weed control at 62 g/ha,[10]; 62 g ai/ha,60%
same,pest or weed control at 125 g/ha,[10]; 125 g ai/ha,70%
same,pest or weed control at 250 g/ha,[10]; 250 g ai/ha,85%
same,pest or weed control at 31 g/ha,[11]; 31 g ai/ha,15%
same,pest or weed control at 62 g/ha,[11]; 62 g ai/ha,60%
same,pest or weed control at 125 g/ha,[11]; 125 g ai/ha,90%
same,"Corn plant response rating (crop injury, 0 = no effect, 100 = complete kill) at 31 g/ha",corn (Zea mays); 31 g ai/ha,10%
same,"Corn plant response rating (crop injury, 0 = no effect, 100 = complete kill) at 62 g/ha",corn (Zea mays); 62 g ai/ha,45%
same,"Corn plant response rating (crop injury, 0 = no effect, 100 = complete kill) at 125 g/ha",corn (Zea mays); 125 g ai/ha,60%
same,pest or weed control at 31 g/ha,[12]; 31 g ai/ha,55%
same,pest or weed control at 62 g/ha,[12]; 62 g ai/ha,100%
same,pest or weed control at 125 g/ha,[12]; 125 g ai/ha,100%
same,pest or weed control at 250 g/ha,[12]; 250 g ai/ha,100%
same,pest or weed control at 31 g/ha,[13]; 31 g ai/ha,10%
same,pest or weed control at 62 g/ha,[13]; 62 g ai/ha,55%
same,pest or weed control at 125 g/ha,[13]; 125 g ai/ha,80%
same,pest or weed control at 250 g/ha,[13]; 250 g ai/ha,95%
same,pest or weed control at 31 g/ha,[14]; 31 g ai/ha,0%
same,pest or weed control at 62 g/ha,[14]; 62 g ai/ha,5%
same,pest or weed control at 125 g/ha,[14]; 125 g ai/ha,10%
same,pest or weed control at 250 g/ha,[14]; 250 g ai/ha,10%
same,pest or weed control at 31 g/ha,[15]; 31 g ai/ha,45%
same,pest or weed control at 62 g/ha,[15]; 62 g ai/ha,40%
same,pest or weed control at 125 g/ha,[15]; 125 g ai/ha,70%
same,pest or weed control at 250 g/ha,[15]; 250 g ai/ha,80%
same,pest or weed control at 31 g/ha,kochia (Kochia scoparia); 31 g ai/ha,40%
same,pest or weed control at 62 g/ha,kochia (Kochia scoparia); 62 g ai/ha,80%
same,pest or weed control at 125 g/ha,kochia (Kochia scoparia); 125 g ai/ha,85%
same,pest or weed control at 250 g/ha,kochia (Kochia scoparia); 250 g ai/ha,95%
same,pest or weed control at 31 g/ha,[16]; 31 g ai/ha,70%
same,pest or weed control at 62 g/ha,[16]; 62 g ai/ha,75%
same,pest or weed control at 125 g/ha,[16]; 125 g ai/ha,90%
same,pest or weed control at 250 g/ha,[16]; 250 g ai/ha,100%
same,pest or weed control at 31 g/ha,wild oat (Avena fatua); 31 g ai/ha,0%
same,pest or weed control at 62 g/ha,wild oat (Avena fatua); 62 g ai/ha,5%
same,pest or weed control at 125 g/ha,wild oat (Avena fatua); 125 g ai/ha,10%
same,pest or weed control at 250 g/ha,wild oat (Avena fatua); 250 g ai/ha,15%
same,pest or weed control at 31 g/ha,[17]; 31 g ai/ha,85%
same,pest or weed control at 62 g/ha,[17]; 62 g ai/ha,90%
same,pest or weed control at 125 g/ha,[17]; 125 g ai/ha,95%
same,pest or weed control at 250 g/ha,[17]; 250 g ai/ha,98%
same,pest or weed control at 31 g/ha,[18]; 31 g ai/ha,70%
same,pest or weed control at 62 g/ha,[18]; 62 g ai/ha,90%
same,pest or weed control at 125 g/ha,[18]; 125 g ai/ha,95%
same,pest or weed control at 250 g/ha,[18]; 250 g ai/ha,95%

# From patent US20170190671A1, “BIS(ARYL)CATECHOL DERIVATIVES AS HERBICIDES” (E I DU PONT DE NEMOURS AND COMPANY, priority 2014, published 2017)
